Values after ≈ are worked out from the molar mass of the structure shown.
Legend:
Type in all cases: cell-based
[1] = Cytotoxicity assay ([3H]-methyl thymidine incorporation, cell proliferation); settings: vero-34, hs-68 or wi-38; for CC50 at 48 h: 50% inhibitory concentration of cell proliferation, 48 hours with compound then 18 hours [3H]-methyl thymidine, cell line not given
Protocol: (§1) The cytotoxicity of test compounds was evaluated according to the following procedure: Flat bottom 96 well plates were plated with 5X10E3 Vero-34 cells/well and 1X10E4 Hs-68 or Wi-38 cells/well respectively and incubated overnight at 37°C and 5% CO2/air. After incubation, the supernatant medium was removed and replaced with test compound dilutions in 2% DMEM (150ul). The cells were then incubated 48 hours in a 5% CO2 incubator at 37°C. […] Cells were then collected onto a fiberglass filter (Printed Filtermat A 1450-421 Wallac) with a Tomtec cell harvester. Suspended cells were collected directly onto filter while for adherent cells, the medium was first removed, then the cells washed with PBS and trypsinized for 2-3 minutes (50µl trypsin/well) before collecting. Filters were dried for 1 hour at 37-40°C and then placed into bags (1450-microbeta # 1450-432 Wallac) with 4.5ml of Betascint and counts obtained with Microbeta 1450 Wallac (protocol 1). The percent of cell proliferation was determined by comparison to the control (no test compound) and thereby establishing 50% inhibitory concentration is established.

HCMV virus = experiment: CMV plaque reduction assay
Protocol: The anti-CMV activity of test compounds was evaluated in a plaque reduction assay as follows: In 12-well tissue culture dishes, 1.5X10E5 or Hs68 cells (human […] fibroblast cell line) were plated per well with 2 ml of DMEM 10% fetal bovine serum and incubated in 5% CO2/air at 37°C overnight or until cells were ready. The medium was then removed and the cells inoculated with 0.5 ml (containing 200 pfu/ml diluted in DMEM 2% FBS) of HCMV virus in each well. After adsorption at 37°C for 2 hours, the virus was removed and cell monolayers were overlaid (1ml) with DMEM 2% FBS containing test compounds at various concentrations. The cells were then incubated at 37°C for 8 days, and then fixed with one volume (1ml) of formaldehyde 8%/water or PBS 1X for 30 minutes. The formaldehyde solution was removed and the cell monolayers were stained with crystal violet 2%/EtOH 20% for a few seconds and then rinsed with water. Monolayers were examined for the presence of plaques under a microscope, the percentage of plaque reduction determined for each compound by comparison with the untreated cells (no test compound) and the 50% inhibitory concentration (IC50) established. Ganciclovir was used as a positive control. Note: DMEM medium contained 1% glutamine and 1% pen/strep

[2] = test system: Vero-34 cells, Hs-68 or Wi-38 cells; experiment: Cytotoxicity assay ([3H]-methyl thymidine incorporation, cell proliferation); settings: 50% inhibitory concentration of cell proliferation, 48 hours with compound then 18 hours [3H]-methyl thymidine; cell line not given
Protocol: as §1

[3] = Human betaherpesvirus 5, 192 h, plaque reduction, HCMV in Hs68 cells (human foreskin fibroblast cell line), 8 days at 37°C

Molecule | CC50 at 48 h [1] | IC50 (HCMV virus; [3]) | CC50 ([1]; positive control tested in tandem with the compounds, value varied between runs) | IC50 (HCMV virus; Human betaherpesvirus 5, positive control tested in tandem with the compounds, plaque reduction assay) | CC50 [2]
O=C(N[C@@H]1C[C@H]1c1ccccc1)c1ccc2cnccc2n1 (relative stereo) [compound #15, [1,6]naphthyridine-2-carboxylic acid (trans-2-phenyl-cyclopropyl)-amide] | ~25 µg/mL (≈ 86.4 µM) | 1 to 10 µg/mL (≈ 3.46 to 34.6 µM) | – | – | –
Cc1ccccc1NC(=O)Nc1ccc2cnccc2n1 [compound 56, 1-(2-methyl-phenyl)-3-[1,6]naphthyridin-2-yl-urea] | > 100 µg/mL | – | – | – | –
CC(C)Oc1ccccc1CNC(=O)c1ccc2cncc(-c3ccccn3)c2n1 [compound 57, 8-(2-pyridyl)-[1,6]naphthyridine-2-carboxylic acid (2-isopropoxybenzylamine)] | 6 to 12.5 µg/mL (≈ 15.1 to 31.4 µM) | 0.1 to 1 µg/mL (≈ 0.251 to 2.51 µM) | – | – | –
Cc1ccccc1CNC(=O)c1ccc2cnccc2n1 [compound #1, N-(2-methylbenzyl)-2-(1,6)naphthyridinecarboxamide] | 50 to 75 µg/mL (≈ 180 to 270 µM) | ~1 µg/mL (≈ 3.61 µM) | – | – | –
O=C(NCc1ccccc1)c1ccc2cnccc2n1 [compound #2, N-benzyl-2-(1,6)naphthyridinecarboxamide] | ~50 µg/mL (≈ 190 µM) | ~1 µg/mL (≈ 3.8 µM) | – | – | –
O=C(NCc1ccc(Br)cc1)c1ccc2cnccc2n1 [compound #3, N-(4-bromobenzyl)-2-(1,6)naphthyridi necarboxamide] | 10 to 50 µg/mL (≈ 29.2 to 146 µM) | 10 to 50 µg/mL (≈ 29.2 to 146 µM) | – | – | –
O=C(NCc1ccccc1Cl)c1ccc2cnccc2n1 [compound #4, N-(2-chlorobenzyl)-2-(1,6)naphthyridinecarboxamide] | ~100 µg/mL (≈ 336 µM) | 0.5 to 1 µg/mL (≈ 1.68 to 3.36 µM) | – | – | –
O=C(NCc1ccccc1Br)c1ccc2cnccc2n1 [compound #5, N-(2-bromobenzyl)-2-(1,6)naphthyridinecarboxamide] | > 100 µg/mL | 0.5 to 1 µg/mL (≈ 1.46 to 2.92 µM) | – | – | –
O=C(NCc1cccc(Br)c1)c1ccc2cnccc2n1 [compound #6, N-(3-bromobenzyl)-2-(1,6)naphthyridinecarboxamide] | ~50 µg/mL (≈ 146 µM) | 1 to 5 µg/mL (≈ 2.92 to 14.6 µM) | – | – | –
O=C(NCc1ccccc1F)c1ccc2cnccc2n1 [compound #7, N-(2-fluorobenzyl)-2-(1,6)naphthyridinecarboxamide] | ~100 µg/mL (≈ 356 µM) | < 5 µg/mL | – | – | –
O=C(NCc1ccc(Cl)cc1)c1ccc2cnccc2n1 [compound #8, N-(4-chlorobenzyl)-2-[1,6]naphthyridinecarboxamide] | 6.25 to 10 µg/mL (≈ 21 to 33.6 µM) | 1 to 10 µg/mL (≈ 3.36 to 33.6 µM) | – | – | –
CCOc1ccccc1CNC(=O)c1ccc2cnccc2n1 [compound #9, N-(2-ethyloxybenzyl)-2-(1,6)naphthyridinecarboxamide] | ~6.25 µg/mL (≈ 20.3 µM) | ~0.1 µg/mL (≈ 0.325 µM) | – | – | –
COc1cccc(CNC(=O)c2ccc3cnccc3n2)c1 [compound #12, N-(3-methoxybenzyl)-2-(1,6)naphthyridinecarboxamide] | > 100 µg/mL | < 5 µg/mL | – | – | –
O=C(NCc1ccccc1C(F)(F)F)c1ccc2cnccc2n1 [compound #13, N-(2-trifluoromethylbenzyl)-2-(1,6)naphthyridinecarboxamide] | > 100 µg/mL | < 5 µg/mL | – | – | –
COc1cccc(OC)c1CNC(=O)c1ccc2cnccc2n1 [compound #14, N-(2,6-dimethoxybenzyl)-2-(1,6)naphthyridinecarboxamide] | > 100 µg/mL | < 5 µg/mL | – | – | –
Nc1cccc(F)c1CNC(=O)c1ccc2cnccc2n1 [compound #16, N-(2-amino-6-fluorobenzyl)-2-[1,6]naphthyridinecarboxamide] | ~25 µg/mL (≈ 84.4 µM) | 1 to 10 µg/mL (≈ 3.37 to 33.7 µM) | – | – | –
CC(NC(=O)c1ccc2cnccc2n1)c1ccccc1 (centres unmarked) [compound #17, [1,6]naphthyridine-2-carboxylic acid (1-phenyl-ethyl) amide] | 25 to 50 µg/mL (≈ 90.1 to 180 µM) | 0.1 to 1 µg/mL (≈ 0.361 to 3.61 µM) | – | – | –
O=C(NCc1ccccn1)c1ccc2cnccc2n1 [compound #18, [1,6]naphthyridine-2-carboxylic acid (pyridine-2-ylmethyl) amide] | > 100 µg/mL | 5 to 25 µg/mL (≈ 18.9 to 94.6 µM) | – | – | –
O=C(NCC1CCCCC1)c1ccc2cnccc2n1 [compound #19] | 25 to 50 µg/mL (≈ 92.8 to 186 µM) | 1 to 10 µg/mL (≈ 3.71 to 37.1 µM) | – | – | –

Molecule | CC50 at 48 h [1] | IC50 (HCMV virus; [3]) | CC50 ([1]; positive control tested in tandem with the compounds, value varied between runs) | IC50 (HCMV virus; Human betaherpesvirus 5, positive control tested in tandem with the compounds, plaque reduction assay) | CC50 [2]
O=C(c1ccc2cnccc2n1)N1CCc2ccccc2C1 [compound #20, (3,4-dihydro-1h-isoquinolin-2-yl)-[1,6]naphthyridin-2-yl-methanone] | > 100 µg/mL | 5 to 25 µg/mL (≈ 17.3 to 86.4 µM) | – | – | –
CSc1ccccc1CNC(=O)c1ccc2cnccc2n1 [compound #21, N-(2-methylthiobenzyl)-2-[1,6]naphthyridine carboxamide] | ~50 µg/mL (≈ 162 µM) | 1 to 10 µg/mL (≈ 3.23 to 32.3 µM) | – | – | –
O=C(NCc1ccccc1O)c1ccc2cnccc2n1 [compound #22, N-(2-hydroxybenzyl)-2-(1,6)naphthyridinecarboxamide] | 25 to 100 µg/mL (≈ 89.5 to 358 µM) | < 5 µg/mL | – | – | –
COC(=O)c1ccccc1CNC(=O)c1ccc2cnccc2n1 [compound #23, N-(2-methoxycarbonylbenzyl)-2-(1,6)naphthyridinecarboxamide] | > 100 µg/mL | < 5 µg/mL | – | – | –
C=CCNC(=O)c1ccc2cnccc2n1 [compound #24, (1,6)naphthyridine-2-carboxylic acid allylamide] | 10 to 100 µg/mL (≈ 46.9 to 469 µM) | 5 to 10 µg/mL (≈ 23.4 to 46.9 µM) | – | – | –
CCNc1ccccc1CNC(=O)c1ccc2cncc(Br)c2n1 [compound #33, 8-bromo-[1,6]naphthyridine-2-carboxylic acid (2-N-ethylaminobenzylamine)] | 6.25 to 12.5 µg/mL (≈ 16.2 to 32.4 µM) | < 0.01 µg/mL | – | – | –
CC(C)Oc1ccccc1CNC(=O)c1ccc2cncc(Br)c2n1 [compound #34, 8-bromo-[1,6]naphthyridine-2-carboxylic acid (2-isopropoxybenzylamine)] | ~12.5 µg/mL (≈ 31.2 µM) | 0.1 to 1 µg/mL (≈ 0.25 to 2.5 µM) | – | – | –
COc1ccccc1CNC(=O)c1ccc2cncc(Br)c2n1 [compound #35, 8-bromo-[1,6]naphthyridine-2-carboxylic acid (2-methoxybenzylamine)] | ~12.5 µg/mL (≈ 33.6 µM) | ~0.01 µg/mL (≈ 0.0269 µM) | – | – | –
CC(C)Oc1ccccc1CNC(=S)c1ccc2cnccc2n1 [compound #40, [1,6]Naphthyridine-2-thiocarboxylic acid-2-isopropoxybenzylamine] | 12.5 to 25 µg/mL (≈ 37 to 74.1 µM) | 0.1 to 1 µg/mL (≈ 0.296 to 2.96 µM) | – | – | –
COc1cccc(CNC(=S)c2ccc3cnccc3n2)c1 [compound #41, [1,6]Naphthyridine-2-thiocarboxylic acid-3-methoxybenzylamine] | 25 to 50 µg/mL (≈ 80.8 to 162 µM) | 1 to 10 µg/mL (≈ 3.23 to 32.3 µM) | – | – | –
CC(C)Oc1ccccc1NC(=O)Nc1ccc2cnccc2n1 [compound #46, 1-(2-iso-propoxy-phenyl)-3-[1,6]naphthyridin-2-yl-urea] | ~25 µg/mL (≈ 77.6 µM) | ~0.01 µg/mL (≈ 0.031 µM) | – | – | –
CC(C)Oc1ccccc1CNC(=O)Nc1ccc2cnccc2n1 [compound #47, 1-(2-iso-propoxybenzyl)-3-[1,6]naphthyridin-2-yl-urea] | 25 to 50 µg/mL (≈ 74.3 to 149 µM) | 0.01 to 0.1 µg/mL (≈ 0.0297 to 0.297 µM) | – | – | –
CC(C)(C)OC(=O)NCCCCNC(=O)Nc1ccc2cnccc2n1 [compound #48, 1-(N-boc-4-aminobutyl)-3-[1,6]naphthyridin-2-yl-urea] | 3.15 to 6.25 µg/mL (≈ 8.76 to 17.4 µM) | 0.1 to 1 µg/mL (≈ 0.278 to 2.78 µM) | – | – | –
Cl.NCCCCNC(=O)Nc1ccc2cnccc2n1 [compound #49, 1-(4-aminobutyl)-3-[1,6]naphthyridin-2-yl-urea hydrochloride] | 6.25 to 12.5 µg/mL | 1 to 5 µg/mL | – | – | –
C[C@H](NC(=O)Nc1ccc2cnccc2n1)c1ccccc1 [compound #50, 1-[(S)-α-methylbenzyl]-3-[1,6]naphthyridin-2-yl-urea] | 12.5 to 25 µg/mL (≈ 42.8 to 85.5 µM) | 1 to 10 µg/mL (≈ 3.42 to 34.2 µM) | – | – | –
C[C@@H](NC(=O)Nc1ccc2cnccc2n1)c1ccccc1 [compound #51, 1-[(R)-α-methylbenzyl]-3-[1,6]naphthyridin-2-yl-urea] | < 3.15 µg/mL | 0.01 to 0.1 µg/mL (≈ 0.0342 to 0.342 µM) | – | – | –
CCCCNC(=O)Nc1ccc2cnccc2n1 [compound #53, 1-butyl-3-[1,6]naphthyridin-2-yl-urea] | 2.5 to 5 µg/mL (≈ 10.2 to 20.5 µM) | 0.1 to 1 µg/mL (≈ 0.409 to 4.09 µM) | – | – | –
Nc1nc(O)c2ncn(COC(CO)CO)c2n1 [ganciclovir, reference compound] | – | – | 10 to 200 µg/mL (≈ 39.2 to 784 µM) | 0.1 to 0.5 µg/mL (≈ 0.392 to 1.96 µM) | –
N-(2propoxybenzyl)-2-[1,6]naphthyridine-2-carboxamide [compound #26] | – | – | – | – | ~1.5 µg/mL
